In PubChem BioAssay AID1963868 (Molecular Pharmacology Branch, DTP, NCI, 2024):

Test system: KRAS PDC tumor spheroids (HUVEC+MSC), viability
Assay: Anticancer human tumor 254851-301-R-J1-PDC patient-derived colon carcinoma cell line growth inhibition [KRAS2]
Details: for IC50: curve of first compound; for viability, T/C: stronger effect = lower value; active means viability on the fitted dose curve at most 10% of control; inactive means the rest
In short: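 Combination screen of spheroid viability in tumor-cell co-cultures with endothelial (HUVEC) and mesenchymal stem cell stroma. Each agent was tested in half-log dilutions, topping at clinical Cmax or at 10 microM without a known Cmax.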

[1] = second compound 0.1 µM, first compound 0.0316 µM
[2] = second compound 0.1 µM, first compound 0.1 µM
[3] = second compound 0.1 µM, first compound 0.316 µM
[4] = second compound 0.1 µM, first compound 1 µM
[5] = second compound 0.1 µM, first compound 3.16 µM
[6] = second compound 0.1 µM, first compound 10 µM
[7] = second compound 0.316 µM, first compound 0.0316 µM
[8] = second compound 0.316 µM, first compound 0.1 µM
[9] = second compound 0.316 µM, first compound 0.316 µM
[10] = second compound 0.316 µM, first compound 1 µM
[11] = second compound 0.316 µM, first compound 3.16 µM
[12] = second compound 0.316 µM, first compound 10 µM
[13] = second compound 1 µM, first compound 0.0316 µM
[14] = second compound 1 µM, first compound 0.1 µM
[15] = second compound 1 µM, first compound 0.316 µM
[16] = second compound 1 µM, first compound 1 µM
[17] = second compound 1 µM, first compound 3.16 µM
[18] = second compound 1 µM, first compound 10 µM
[19] = second compound 3.16 µM, first compound 0.0316 µM
[20] = second compound 3.16 µM, first compound 0.1 µM
[21] = second compound 3.16 µM, first compound 0.316 µM
[22] = second compound 3.16 µM, first compound 1 µM
[23] = second compound 3.16 µM, first compound 3.16 µM
[24] = second compound 3.16 µM, first compound 10 µM
[25] = second compound 10 µM, first compound 0.0316 µM
[26] = second compound 10 µM, first compound 0.1 µM
[27] = second compound 10 µM, first compound 0.316 µM
[28] = second compound 10 µM, first compound 1 µM
[29] = second compound 10 µM, first compound 3.16 µM
[30] = second compound 10 µM, first compound 10 µM
[31] = second compound 0.0316 µM, first compound 0.01 µM
[32] = second compound 0.0316 µM, first compound 0.0316 µM
[33] = second compound 0.0316 µM, first compound 0.1 µM
[34] = second compound 0.0316 µM, first compound 0.316 µM
[35] = second compound 0.0316 µM, first compound 1 µM
[36] = second compound 0.1 µM, first compound 0.00316 µM
[37] = second compound 0.1 µM, first compound 0.01 µM
[38] = second compound 0.316 µM, first compound 0.00316 µM
[39] = second compound 0.316 µM, first compound 0.01 µM
[40] = second compound 1 µM, first compound 0.00316 µM
[41] = second compound 1 µM, first compound 0.01 µM
[42] = second compound 3.16 µM, first compound 0.00316 µM
[43] = second compound 3.16 µM, first compound 0.01 µM
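Further: spheroids exposed to compounds for seven days before readout.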
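Wherever viability, T/C is given: 100% = DMSO vehicle control luminescence of the spheroids.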

COc1cc(Nc2ncc3c(n2)-c2ccc(Cl)cc2C(c2c(F)cccc2OC)=NC3)ccc1C(=O)O + C=CC(=O)N1CCN(c2nc(=O)n(-c3c(C)ccnc3C(C)C)c3nc(-c4c(O)cccc4F)c(F)cc23)C(C)C1
89.7 nM: IC50 (second compound 0.1 µM)
59.2 nM: IC50 (second compound 1 µM)
107 nM: IC50 (second compound 0.316 µM)
122 nM: IC50 (second compound 10 µM)
110 nM: IC50 (second compound 3.16 µM)
inactive: viability, T/C [1] 86% | viability, T/C [2] 40% | viability, T/C [3] 32.7% | viability, T/C [4] 28.6% | viability, T/C [5] 18.9% | viability, T/C [6] 9.83% | viability, T/C [7] 86.7% | viability, T/C [8] 45.4% | viability, T/C [9] 35% | viability, T/C [10] 28.8% | viability, T/C [11] 19.5% | viability, T/C [12] 10.7% | viability, T/C [13] 56.4% | viability, T/C [14] 43.1% | viability, T/C [15] 36.6% | viability, T/C [16] 29.3% | viability, T/C [17] 21.4% | viability, T/C [18] 12.3% | viability, T/C [19] 77.6% | viability, T/C [20] 45% | viability, T/C [21] 39.1% | viability, T/C [22] 29.1% | viability, T/C [23] 19.2% | viability, T/C [24] 13.6% | viability, T/C [25] 93.3% | viability, T/C [26] 47.6% | viability, T/C [27] 38.4% | viability, T/C [28] 32.4% | viability, T/C [29] 22.4% | viability, T/C [30] 17.5%

CCN1CCN(Cc2ccc(Nc3ncc(F)c(-c4cc(F)c5nc(C)n(C(C)C)c5c4)n3)nc2)CC1 + C=CC(=O)N1CCN(c2nc(OCC3CCCN3C)nc3c2CCN(c2cccc4cccc(C)c24)C3)CC1CC#N
645 nM: IC50 (second compound 0.1 µM)
605 nM: IC50 (second compound 0.0316 µM)
inactive: viability, T/C (second compound 0.0316 µM, first compound 0.00316 µM) 102% | viability, T/C [31] 97.3% | viability, T/C [32] 90.8% | viability, T/C [33] 78.1% | viability, T/C [34] 64.4% | viability, T/C [35] 39.2% | viability, T/C [36] 98.9% | viability, T/C [37] 95.5% | viability, T/C [1] 83.3% | viability, T/C [2] 71.5% | viability, T/C [3] 66.2% | viability, T/C [4] 40.6% | viability, T/C [38] 98% | viability, T/C [39] 87.6% | viability, T/C [7] 94.2% | viability, T/C [8] 77% | viability, T/C [9] 60.5% | viability, T/C [10] 42% | viability, T/C [40] 59.5% | viability, T/C [41] 63.2% | viability, T/C [13] 57.5% | viability, T/C [14] 49.7% | viability, T/C [15] 44.5% | viability, T/C [16] 34.6% | viability, T/C [42] 65.6% | viability, T/C [43] 56.8% | viability, T/C [19] 52.5% | viability, T/C [20] 43.4% | viability, T/C [21] 40.1% | viability, T/C [22] 16%
131 nM: IC50 (second compound 1 µM)
600 nM: IC50 (second compound 0.316 µM)
55.3 nM: IC50 (second compound 3.16 µM)

CC1(C)CCC(CN2CCN(c3ccc(C(=O)NS(=O)(=O)c4ccc(NCC5CCOCC5)c([N+](=O)[O-])c4)c(Oc4cnc5[nH]ccc5c4)c3)CC2)=C(c2ccc(Cl)cc2)C1 + C=CC(=O)N1CCN(c2nc(=O)n(-c3c(C)ccnc3C(C)C)c3nc(-c4c(O)cccc4F)c(F)cc23)C(C)C1
inactive: viability, T/C [1] 106% | viability, T/C [2] 112% | viability, T/C [3] 98.2% | viability, T/C [4] 95.4% | viability, T/C [5] 95.3% | viability, T/C [6] 73.6% | viability, T/C [7] 106% | viability, T/C [8] 115% | viability, T/C [9] 91.2% | viability, T/C [10] 95.1% | viability, T/C [11] 91.3% | viability, T/C [12] 91.6% | viability, T/C [13] 114% | viability, T/C [14] 115% | viability, T/C [15] 105% | viability, T/C [16] 104% | viability, T/C [17] 93.8% | viability, T/C [18] 74.3% | viability, T/C [19] 102% | viability, T/C [20] 119% | viability, T/C [21] 102% | viability, T/C [22] 103% | viability, T/C [23] 92.7% | viability, T/C [24] 84.9% | viability, T/C [25] 109% | viability, T/C [26] 109% | viability, T/C [27] 97.8% | viability, T/C [28] 107% | viability, T/C [29] 93.8% | viability, T/C [30] 83.7%
> 10000 nM: IC50 (second compound 0.1 µM) | IC50 (second compound 0.316 µM) | IC50 (second compound 1 µM) | IC50 (second compound 3.16 µM) | IC50 (second compound 10 µM)

COc1cc2nccc(Oc3ccc(NC(=O)C4(C(=O)Nc5ccc(F)cc5)CC4)cc3)c2cc1OC + CNCc1ccccc1-c1csc(C(C)Nc2nc(C)nc3cc(OC)c(OC)cc23)c1
7280 nM: IC50 (second compound 0.316 µM)
9900 nM: IC50 (second compound 0.1 µM)
1630 nM: IC50 (second compound 3.16 µM)
inactive: viability, T/C [1] 102% | viability, T/C [2] 104% | viability, T/C [3] 97.2% | viability, T/C [4] 103% | viability, T/C [5] 101% | viability, T/C [6] 49.6% | viability, T/C [7] 112% | viability, T/C [8] 91.5% | viability, T/C [9] 96.3% | viability, T/C [10] 101% | viability, T/C [11] 85.5% | viability, T/C [12] 36.3% | viability, T/C [13] 107% | viability, T/C [14] 102% | viability, T/C [15] 100% | viability, T/C [16] 99.7% | viability, T/C [17] 82.7% | viability, T/C [18] 29.3% | viability, T/C [19] 82% | viability, T/C [20] 78% | viability, T/C [21] 72.4% | viability, T/C [22] 64.4% | viability, T/C [23] 32.5%
< 31.6 nM: IC50 (second compound 10 µM)
6420 nM: IC50 (second compound 1 µM)
active: viability, T/C [24] 0.27% | viability, T/C [25] 0.19% | viability, T/C [26] 0.17% | viability, T/C [27] 0.16% | viability, T/C [28] 0.18% | viability, T/C [29] 0.13% | viability, T/C [30] 0.17%

Cn1ncnc1[C@H]1c2n[nH]c(=O)c3cc(F)cc(c23)N[C@@H]1c1ccc(F)cc1 + COc1cc2nc(C)nc(NC(C)c3cc(N)cc(C(F)(F)F)c3)c2cc1OC1CCOC1
inactive: viability, T/C (second compound 0.1 µM, first compound 0.000316 µM) 111% | viability, T/C (second compound 0.1 µM, first compound 0.001 µM) 95.6% | viability, T/C [36] 104% | viability, T/C [37] 100% | viability, T/C [1] 99.6% | viability, T/C [2] 101% | viability, T/C (second compound 0.316 µM, first compound 0.000316 µM) 95.9% | viability, T/C (second compound 0.316 µM, first compound 0.001 µM) 100% | viability, T/C [38] 93.5% | viability, T/C [39] 80.9% | viability, T/C [7] 84.8% | viability, T/C [8] 89.5% | viability, T/C (second compound 1 µM, first compound 0.000316 µM) 86.9% | viability, T/C (second compound 1 µM, first compound 0.001 µM) 81.6% | viability, T/C [40] 83.1% | viability, T/C [41] 86.4% | viability, T/C [13] 85.9% | viability, T/C [14] 81.3% | viability, T/C (second compound 3.16 µM, first compound 0.000316 µM) 86.5% | viability, T/C (second compound 3.16 µM, first compound 0.001 µM) 83.8% | viability, T/C [42] 95.9% | viability, T/C [43] 86% | viability, T/C [19] 87.2% | viability, T/C [20] 80.9% | viability, T/C (second compound 10 µM, first compound 0.000316 µM) 77.9% | viability, T/C (second compound 10 µM, first compound 0.001 µM) 83% | viability, T/C (second compound 10 µM, first compound 0.00316 µM) 80.8% | viability, T/C (second compound 10 µM, first compound 0.01 µM) 78.1% | viability, T/C [25] 69.2% | viability, T/C [26] 74.7%
> 100 nM: IC50 (second compound 0.1 µM) | IC50 (second compound 0.316 µM) | IC50 (second compound 1 µM) | IC50 (second compound 3.16 µM) | IC50 (second compound 10 µM)

CC1COCCN1c1cc(-c2ccnn2C)c2ccnc(-c3ccn[nH]3)c2n1 (stereo not given) + C=CC(=O)N1CCN(c2nc(OCC3CCCN3C)nc3c2CCN(c2cccc4cccc(C)c24)C3)CC1CC#N
300 nM: IC50 (second compound 0.1 µM)
207 nM: IC50 (second compound 0.0316 µM)
inactive: viability, T/C [31] 122% | viability, T/C [32] 88.8% | viability, T/C [33] 62.7% | viability, T/C [34] 40.4% | viability, T/C [35] 32.7% | viability, T/C (second compound 0.0316 µM, first compound 3.16 µM) 20.4% | viability, T/C [37] 101% | viability, T/C [1] 95.3% | viability, T/C [2] 64.8% | viability, T/C [3] 50.8% | viability, T/C [4] 34% | viability, T/C [5] 21.4% | viability, T/C [39] 105% | viability, T/C [7] 97.1% | viability, T/C [8] 58.8% | viability, T/C [9] 41.9% | viability, T/C [10] 32.3% | viability, T/C [11] 22.5% | viability, T/C [41] 59.4% | viability, T/C [13] 53% | viability, T/C [14] 48.8% | viability, T/C [15] 26.3% | viability, T/C [16] 26.5% | viability, T/C [17] 39.7% | viability, T/C [43] 57.6% | viability, T/C [19] 47.1% | viability, T/C [20] 32.8% | viability, T/C [21] 23.3% | viability, T/C [22] 18.8% | viability, T/C [23] 23.8%
23.8 nM: IC50 (second compound 3.16 µM)
187 nM: IC50 (second compound 0.316 µM)
82.6 nM: IC50 (second compound 1 µM)
